Read-outs that look alike come from different tables or passages of the source. Residues, ends and D or L forms follow the SMILES beside them.
Columns and labels:
[1] = Sedimentation equilibrium analytical ultracentrifugation of aPP variants, monomer-n-mer fit (self-association); type: physicochemical; conditions: for % monomer at 30 μM: 30 μM peptide; for % monomer at 30 μM / n (stoichiometry of the self-associated complex) / lnKA when n = 4: 25° C.; for n (stoichiometry of the self-associated complex): monomer-n-mer fit; for lnKA when n = 4: monomer-tetramer; for Kd (self-association, tetramer): n = 4, 25° C., calculated from ln KA
Method: Analytical ultracentrifugation experiments were performed using peptide solutions prepared in Tris.Cl buffer (25 mM Tris base, 50 mM NaCl, (pH 8.0)) at the appropriate concentrations (5 micromolar to 200 micromolar). Samples were then centrifuged to equilibrium at 25° C. at 42,000, 50,000, and 60,000 rpm. Data were collected with a 0.001 cm step size and successive scans were initiated at 2 h intervals. Samples were judged to have reached equilibrium when the radial concentration gradient remained unchanged over three successive scans using the Match module of Heteroanalysis software v1.1.19. The solvent density (ρ, rho) and partial specific volume ( ν, nu) were calculated using the Sedimentation Interpretation Program “Sednterp” software v1.08.
The data for each peptide (multiple concentrations at three speeds) was first fit globally to an equation describing the sedimentation of an ideal species of molecular weight Mn (Eq. 1) using Heteroanalysis software v1.1.19:
where C represents the concentration of the sedimenting species at distances r and r0 cm from the center of rotation; ν (nu) is the partial specific volume of the sedimenting species in cc/g; ρ (rho) is the density of the supporting buffer in g/cc; ω (omega) is the angular velocity of the rotor (radians/s); Mn is the “molar” molecular weight of sedimenting species (g/mol); R is the universal gas constant (8.315×10^7 ergs K^−1 mol^−1) and T is the temperature in degrees Kelvin.
In order to quantify this self-association, the data for each peptide was next fit globally to a monomer-n-mer equilibrium model using Eq. 2:
where n is the stoichiometry of the self-associated complex. Errors were calculated for n and lnKA using f-statistics to two standard deviations.
Samples were prepared in PBS buffer and centrifuged at speeds of 42,000 (41), 50,000 (42), or 60,000 RPM (43) at 25° C. Experimental data are shown as points; lines indicate the best fit to a monomer-n-mer model described by Eq. 2.

[2] = target: c-Src SH3 domain-GST fusion protein (Gallus gallus, UniProt P00523); assay: Fluorescence polarization direct binding assay, c-Src SH3; set-up: species or system chicken; conditions: 50 nM fluorescently labeled ligand, read-out: Kd, c-Src SH3
Method: Polarization was measured by excitation with vertically polarized light at 485 nm and the fluorescence emission detected at 530 nm in both the vertical and horizontal directions. An average of five measurements were recorded for each well. Samples were equilibrated at room temperature for 25 min before analysis, a time sufficient for the binding reactions to reach equilibrium. The polarization data were fit using Kaleidagraph v3.6 software to Eq. 5, which is derived from first principles without assumptions. […] In this equation, Pobs is the observed polarization value at any given concentration of target protein (GST•SH3 domain). Pmin is the polarization of peptide^Flu at 50 nM in the absence of target protein. Pmax is the maximum polarization of peptide^Flu at saturation with target protein. Kd is the equilibrium dissociation constant. […] Free fits are shown. Kd values were estimated as described.

Hck kinase = target: T1, Hck kinase (Homo sapiens, UniProt P08631); assay: Hck kinase activation, NADH-coupled assay; type: biochemical; conditions: for Activity / Fold-Activation: Activator 50 micromolar; for Fold-Activation: rate with ligand / rate without ligand; for EC50: read-out: Kact (concentration of activator at half-maximal activation)
T1 construct: His6 (N); made in house; host or cells: HighFive insect cells, co-infected with Hck and Csk baculovirus
Method: Activation of Hck kinase was measured using a validated NADH-coupled assay as described. Briefly, purified Hck kinase (15 micromolar) was first pre-incubated with 500 micromolar ATP and 20 mM MgCl2 for about 30 min on ice to initiate autophosphorylation of Y416. The autophosphorylated product (0.55 micromolar final concentration) was then incubated in Hck Reaction Buffer (20 mM MgCl2, 0.1 mM DTT, 20 μg/mL BSA, 100 mM HEPES (pH 7.5)) for 10 min at room temperature with the indicated concentration of Nef or miniature protein. At this time the remaining assay components (1 mM PEP, 0.2 mM NADH, 6 U pyruvate kinase (Type II from rabbit muscle, Sigma), 6 U L-lactic dehydrogenase (Type II from rabbit muscle, Sigma), 600 micromolar substrate peptide, and 500 micromolar ATP) were added to initiate the reaction (total volume 200 microliters) and the absorbance at 340 nm was monitored every 10 sec for 10 min using a Beckman DU 730 UVN is Spectrophotomer. The activation constant Kact for each ligand was calculated from the initial rate as a function of ligand concentration as previously described, using Eq. 6. Fold activation was calculated by dividing the rate in the presence of ligand by the rate in the absence of ligand.
va=Vact[L]/(Kact±[L]) Equation 6.
In this equation va is velocity measured in the presence of ligand minus the velocity measured in its absence; Vact is the maximal activated velocity minus the velocity measured in the absence of ligand; [L] is the concentration of activator and Kact is concentration of activator at half-maximal activation.

T1 sequence (P08631 whole entry): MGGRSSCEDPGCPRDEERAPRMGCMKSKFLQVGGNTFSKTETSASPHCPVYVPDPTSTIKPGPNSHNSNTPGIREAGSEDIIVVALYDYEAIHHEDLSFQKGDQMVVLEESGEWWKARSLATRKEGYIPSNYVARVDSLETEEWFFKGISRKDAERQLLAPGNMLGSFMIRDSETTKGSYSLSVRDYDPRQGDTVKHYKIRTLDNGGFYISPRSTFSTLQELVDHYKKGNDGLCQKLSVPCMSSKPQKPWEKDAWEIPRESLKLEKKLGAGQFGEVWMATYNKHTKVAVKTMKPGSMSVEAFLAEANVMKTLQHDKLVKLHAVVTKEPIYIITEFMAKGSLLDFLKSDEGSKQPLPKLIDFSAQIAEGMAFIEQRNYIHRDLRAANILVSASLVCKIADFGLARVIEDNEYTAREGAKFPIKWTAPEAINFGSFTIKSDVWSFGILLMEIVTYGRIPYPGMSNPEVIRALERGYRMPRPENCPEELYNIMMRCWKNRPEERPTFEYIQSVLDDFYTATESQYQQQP

Row | Molecule | % monomer at 30 μM [1] [%] | n (stoichiometry of the self-associated complex) [1] | lnKA when n = 4 [1] | Kd (self-association, tetramer) [1] | Kd [2] [µM] | Activity (Hck kinase) [nmol/s] | Fold-Activation (Hck kinase) | EC50 (Hck kinase) [µM] | Kd ([2]; PBS pH 7.4) [µM]
1 | GPSQPTAPGDDAVPEDLIRFYDNLQQYLNVVTRHRY [aPP^Y7AP13VV14P] | 90 | 4.48 | when n = 4 27.92 | 7.5 × 10^−13 M^3 |  |  |  |  | 
2 | CC[C@H](C)[C@H](NC(=O)[C@H](CC(C)C)NC(=O)[C@H](CC(=O)O)NC(=O)[C@H](CCC(=O)O)NC(=O)[C@@H](NC(=O)[C@@H]1CCCN1C(=O)[C@H](C)NC(=O)[C@H](CC(=O)O)NC(=O)[C@H](CCCNC(=N)N)NC(=O)[C@@H]1CCCN1C(=O)[C@H](CCCNC(=N)N)NC(=O)[C@H](CC(N)=O)NC(=O)[C@H](CCCNC(=N)N)NC(=O)[C@@H]1CCCN1C(=O)[C@@H]1CCCN1C(=O)[C@H](CC(C)C)NC(=O)[C@@H]1CCCN1C(=O)[C@@H]1CCCN1C(=O)[C@H](C)N)C(C)C)C(=O)N[C@@H](CCCNC(=N)N)C(=O)N[C@@H](Cc1ccccc1)C(=O)N[C@@H](Cc1ccc(O)cc1)C(=O)N[C@@H](CC(=O)O)C(=O)N[C@@H](CC(N)=O)C(=O)N[C@@H](CC(C)C)C(=O)N[C@@H](CCC(N)=O)C(=O)N[C@@H](CCC(N)=O)C(=O)N[C@@H](Cc1ccc(O)cc1)C(=O)N[C@@H](CC(C)C)C(=O)N[C@@H](CC(N)=O)C(=O)N[C@H](C(=O)N[C@H](C(=O)N[C@H](C(=O)N[C@@H](CCCNC(=N)N)C(=O)N[C@@H](Cc1c[nH]cn1)C(=O)N[C@@H](CCCNC(=N)N)C(=O)N[C@@H](Cc1ccc(O)cc1)C(N)=O)[C@@H](C)O)C(C)C)C(C)C [PP3] (H-APPLPPRNRPRDAPVEDLIRFYDNLQQYLNVVTRHRY-NH2) |  |  |  |  | 0.35 ± 0.04 | 83.9 ± 5.4 | 7 ± 3 | 48 ± 22 | 
3 | CC[C@H](C)[C@H](NC(=O)[C@H](CC(C)C)NC(=O)[C@H](CC(=O)O)NC(=O)[C@H](CCC(=O)O)NC(=O)[C@@H](NC(=O)[C@@H]1CCCN1C(=O)[C@H](C)NC(=O)[C@H](CC(=O)O)NC(=O)[C@H](CC(=O)O)NC(=O)CNC(=O)[C@@H]1CCCN1C(=O)[C@H](CC(N)=O)NC(=O)[C@H](CCCNC(=N)N)NC(=O)[C@@H]1CCCN1C(=O)[C@@H]1CCCN1C(=O)[C@H](CC(C)C)NC(=O)[C@@H]1CCCN1C(=O)[C@@H]1CCCN1C(=O)[C@H](C)N)C(C)C)C(=O)N[C@@H](CCCNC(=N)N)C(=O)N[C@@H](Cc1ccccc1)C(=O)N[C@@H](Cc1ccc(O)cc1)C(=O)N[C@@H](CC(=O)O)C(=O)N[C@@H](CC(N)=O)C(=O)N[C@@H](CC(C)C)C(=O)N[C@@H](CCC(N)=O)C(=O)N[C@@H](CCC(N)=O)C(=O)N[C@@H](Cc1ccc(O)cc1)C(=O)N[C@@H](CC(C)C)C(=O)N[C@@H](CC(N)=O)C(=O)N[C@H](C(=O)N[C@H](C(=O)N[C@H](C(=O)N[C@@H](CCCNC(=N)N)C(=O)N[C@@H](Cc1c[nH]cn1)C(=O)N[C@@H](CCCNC(=N)N)C(=O)N[C@@H](Cc1ccc(O)cc1)C(N)=O)[C@@H](C)O)C(C)C)C(C)C [PP1] (H-APPLPPRNPGDDAPVEDLIRFYDNLQQYLNVVTRHRY-NH2) |  |  |  |  |  | 83.6 ± 6.0 | 8 ± 3 |  | 3.68 ± 0.06
4 | CC[C@H](C)[C@H](NC(=O)[C@H](CC(C)C)NC(=O)[C@H](CC(=O)O)NC(=O)[C@H](CCC(=O)O)NC(=O)[C@@H](NC(=O)[C@@H]1CCCN1C(=O)[C@H](C)NC(=O)[C@H](CC(=O)O)NC(=O)[C@H](CC(=O)O)NC(=O)CNC(=O)[C@H](CCCNC(=N)N)NC(=O)[C@H](CC(N)=O)NC(=O)[C@H](CCCNC(=N)N)NC(=O)[C@@H]1CCCN1C(=O)[C@@H]1CCCN1C(=O)[C@H](CC(C)C)NC(=O)[C@@H]1CCCN1C(=O)[C@@H]1CCCN1C(=O)[C@H](C)N)C(C)C)C(=O)N[C@@H](CCCNC(=N)N)C(=O)N[C@@H](Cc1ccccc1)C(=O)N[C@@H](Cc1ccc(O)cc1)C(=O)N[C@@H](CC(=O)O)C(=O)N[C@@H](CC(N)=O)C(=O)N[C@@H](CC(C)C)C(=O)N[C@@H](CCC(N)=O)C(=O)N[C@@H](CCC(N)=O)C(=O)N[C@@H](Cc1ccc(O)cc1)C(=O)N[C@@H](CC(C)C)C(=O)N[C@@H](CC(N)=O)C(=O)N[C@H](C(=O)N[C@H](C(=O)N[C@H](C(=O)N[C@@H](CCCNC(=N)N)C(=O)N[C@@H](Cc1c[nH]cn1)C(=O)N[C@@H](CCCNC(=N)N)C(=O)N[C@@H](Cc1ccc(O)cc1)C(N)=O)[C@@H](C)O)C(C)C)C(C)C [PP2] (H-APPLPPRNRGDDAPVEDLIRFYDNLQQYLNVVTRHRY-NH2) |  |  |  |  |  | 138.8 ± 7.6 | 13 ± 5 | 48 ± 13 | 1.3 ± 0.2
5 | GPSQPTAPGDDAPVEDLIRFYDNLRQYLNVVTRHRY [aPP^Y7AQ25R] | 78 | 4.06 | when n = 4 29.34 | 1.8 × 10^−13 M^3 |  |  |  |  | 
6 | GPSQPTYPGDDAPVEDLIRAYDNLQQYLNVVTRHRY [aPP^F20A] |  | 3.87 | when n = 4 23.29 | 7.6×10^−11 M^3 |  |  |  |  | 
7 | aPP^Y7AT6E: SEQ ID NO: 8, CPSQPEAPGDDAPVEDLIRFYDNLQQYLNVVTRHRY (Table 1 prints GPSQPE...) | 79 | 3.88 |  | 2.0 × 10^−13 M^3 |  |  |  |  | 
8 | GPSQPTAPGDDAPVEDLIRFYDNLQQYLNVVTRHRY [aPP^Y7A] |  | 3.77 | when n = 4 26.28 | 3.9×10^−12 M^3 |  |  |  |  | 
